Laboratory results published in patent US20210239681A1, “COMPOSITIONS AND METHODS FOR […] OF […]-BASED IMMUNOTHERAPEUTICS” (ADVAXIS, INC., priority 2018, published 2021).

Legend:
Type in all cases: cell-based, human
[1] = test system: THP-1 cells; assay: Cytokine production by THP-1 in the absence of T cells; settings: Without gentamicin; Listeria MOI of 10; optical density
[2] = test system: THP-1 cells; assay: as above; parameters: IL-6: unit not given here
Description: (§1) Analysis Kits and Reagents: Analysis of cytokine concentrations in culture medium used the U-plex assay kits from Meso Scale Discovery. Expression of T cell receptors specific for E7 peptide bound to HLA-A*02:01 was detected using HLA-A*02:01/peptide tetramers from MBL International (Woburn, Mass.).
Infection of THP-1: The THP-1 cell line was infected with either ADXS11-001 or XFL7 by incubating 10^6 cells with dilutions of bacteria in a 1 mL volume of RPMI 1640 10% FBS. […] After incubation with gentamicin the cells were washed again and resuspended to the desired cell concentration.
(§2) T cell cytokine expression analysis. An initial experiment using THP-1 as antigen presenting cells was performed using a T cell culture containing 6% E7 (11-20) specific T cells based upon staining with HLA-A*02:01/peptide tetramer. THP-1 cells were infected as described using two different concentrations of bacteria and then co-cultured with the T cells. Controls included uninfected THP-1 cells and THP-1 cells incubated with (exposed to) either the 9mer or 10mer peptide for one hour. After an overnight co-culture, medium was collected for analysis of cytokines.
To further explore the importance of the overnight incubation of infected THP-1, THP-1 cells infected overnight were compared to THP-1 cells infected for 2 hours. T cells specific for 9mer and 10mer peptides were co-cultured with each of the THP-1 cells and with uninfected or peptide exposed THP-1. As before, medium was collected after an overnight co-culture and cytokines were measured.
Titration studies with different multiplicity of infection (MOI). THP cells were infected for 2 hours with 3 different dilutions (MOI) of Listeria. Infected or uninfected THP cells were then cultured overnight for 24 hours before co-culturing the T cells. Cells were co-cultured overnight before cytokine analysis.

[3] = test system: PBMC; assay: Cytokine release by donor PBMC cultured with peptide; parameters: unit not given beside the values; settings: release on antigen
Description: Peripheral blood mononuclear cells (PBMCs) samples were collected from three human HLA-A*02:01 donors: 358, 213, and 224. The peripheral blood mononuclear cells (PBMCs) were cultured with one of two E7 peptides: […] (9mer or 1T; SEQ ID NO: 100) or […] (10mer or 2T; SEQ ID NO: 101). After 10 days culture, the PBMCs were tested for E7 peptide binding staining and cytokine release.

[4] = test system: E7 (11-20) specific T cells; assay: Initial THP-1 / T cell co-culture cytokine production (T cell culture with 6% E7 (11-20) specific T cells); parameters: IFNγ / TNF-α / IL-10 / IL-12p70 / IL-13 / IL-1β / IL-2 / IL-4 / IL-6 / IL-8: unit not given here
Description: as §1
Infection of THP-1: The THP-1 cell line was infected with either ADXS11-001 or XFL7 by incubating 10^6 cells with dilutions of bacteria in a 1 mL volume of RPMI 1640 10% FBS. Incubation with bacteria was at 37° C., 5% CO2 for the indicated times, then extracellular bacteria were eliminated by washing and incubation in the presence of 50 μg/mL gentamicin for 1 hour at 37° C. After incubation with gentamicin the cells were washed again and resuspended to the desired cell concentration.
as §2

[5] = Cytokine secretion by THP-1 after infection or + E7 peptide (No T cells), mean of triplicate
[6] = THP-1 + peptide, THP-1 cell alone
[7] = THP-1 + peptide, THP-1 cells only
[8] = THP-1 incubated with peptide, absence of T cells
[9] = T cells and THP-1 incubated with peptide one hour, overnight co-culture

YMLDLQPETT [10mer]
IFNγ production, THP-1 alone [1]: 0.062
IFNγ production, THP-1 alone ([2]; 50 μg/mL gentamicin, Listeria MOI of 10, optical density): 0.058
IFNγ [2, 5]: 36.7 pg/mL
IL-1β [2, 5]: 0.2 pg/mL
IL-2 [2, 5]: 4.6 pg/mL
IL-4 [2, 5]: 0.6 pg/mL
IL-5 [2, 5]: <LLOD
IL-8 [2, 5]: 11.8 pg/mL
IL-10 [2, 5]: 0.4 pg/mL
IL-12p70 [2, 5]: 0.3 pg/mL
IL-13 [2, 5]: <LLOD
TNF-α [2, 5]: 15.5 pg/mL
IFNγ [2, 6]: 9
IL-1β [2, 6]: 0
IL-6 [2, 6]: <LLOD
TNF-α [2, 6]: <LLOD
IFNγ [2, 7]: 1
IL-1β [2, 7]: 0
IL-6 [2, 7]: 6
TNF-α [2, 7]: 104
IFNγ ([2]; THP-1 alone, peptide exposed): <LLOD
IL-1β ([2]; THP-1 alone, peptide exposed): <LLOD
IL-2 ([2]; THP-1 alone, peptide exposed): <LLOD
IL-5 ([2]; THP-1 alone, peptide exposed): <LLOD
IL-6 ([2]; THP-1 alone, peptide exposed): <LLOD
IL-10 ([2]; THP-1 alone, peptide exposed): <LLOD
IL-12p70 ([2]; THP-1 alone, peptide exposed): <LLOD
IL-13 ([2]; THP-1 alone, peptide exposed): <LLOD
TNF-α ([2]; THP-1 alone, peptide exposed): 0
IFNγ [2, 8]: <LLOD
IL-1β [2, 8]: 0.1
IL-2 [2, 8]: <LLOD
IL-4 [2, 8]: <LLOD
IL-6 [2, 8]: <LLOD
IL-8 [2, 8]: 8.1
IL-10 [2, 8]: <LLOD
IL-12p70 [2, 8]: <LLOD
IL-13 [2, 8]: <LLOD
TNF-α [2, 8]: <LLOD
IFNγ Mean ([3]; donor 213 PBMC cultured with 1T peptide): 86.6
IFNγ Mean ([3]; donor 358 PBMC stimulated with 1T): 183.9
IFNγ Mean ([3]; donor 358 PBMC stimulated with 2T): 359.8
IFNγ [4, 9]: 17140.7
IL-1β [4, 9]: 7.0
IL-2 [4, 9]: 315.2
IL-4 [4, 9]: 11.9
IL-6 [4, 9]: 19.6
IL-8 [4, 9]: 6099.7
IL-10 [4, 9]: 34.0
IL-12p70 [4, 9]: 7.4
IL-13 [4, 9]: 508.4
TNF-α [4, 9]: 1192.3
T cell cytokine response to peptide presented by THP-1 ([4]; relative to T cells co-cultured with control or uninfected THP-1 cells): elevated levels of IFNγ, IL-13, IL-2, IL-8 and TNFα
